Source: patent publication US8470351B2, “Embedding antibiotic compounds in solid polymers” (The Research Foundation of the City University of New York, priority 2007, dated 2013)

Key:
[1] = system: Escherichia coli; assay: Antimicrobial assessment of embedded polyester fabric on mineral salts agar; assay type: cell-based; conditions: agent embedded in three polyester fabrics ("144×90", "Spandex" 5% lycra with polyester, "Darlington"), incubated at 28° C. for 28 days
Protocol: (§1) Three types of polyester fabric are embedded with bis-1′,3′-(1-hexadecyl)-1,4-diazoniabicyclo[2.2.2]octane-2′-propanol tetrachloride. Three polyester samples supplied by Gar are tested—a) “144×90”, b) “Spandex” which is 5% lycra with polyester, and c) “Darlington.” Each fabric sample is placed onto a mineral salts agar medium and then inoculated with either Staphylococus aureus or Escherichia coli. The inoculated specimen is then incubated at 28° C. for 28 days, in order to allow adequate time for bacterial growth. The fabric samples show a complete kill of both Staphylococus aureus and Escherichia coli.

[2] = system: Staphylococus aureus; assay: as above; assay type: cell-based; conditions: agent embedded in three polyester fabrics ("144×90", "Spandex" 5% lycra with polyester, "Darlington"), incubated at 28° C. for 28 days
Protocol: as §1

[3] = Antimicrobial property of PVC surface with embedded agent; conditions: agent added to PVC heated to 350° F., 10 g/square meter of finished surface; after pressing and cooling
Protocol: To a preparation of PVC prepared for finishing and heated to 350° F. is added the agent bis-1′,3′-(1-hexadecyl)-1,4-diazoniabicyclo[2.2.2]octane-2′-propanol tetrachloride in an amount of 10 g/square meter of finished surface. After pressing and cooling samples the surface is antimicrobial.

With `CCCCCCCCCCCCCCCC[N+]12CC[N+](CC(O)C[N+]34CC[N+](CCCCCCCCCCCCCCCC)(CC3)CC4)(CC1)CC2.[Cl-].[Cl-].[Cl-].[Cl-]` (stereo not drawn) [bis-1′,3′-(1-hexadecyl)-1,4-diazoniabicyclo[2.2.2]octane-2′-propanol tetrachloride] the “kill of Escherichia coli on embedded fabric samples” value [1] was “complete kill”, the “kill of Staphylococus aureus on embedded fabric samples” value [2] was “complete kill” and the “antimicrobial property of the surface” value [3] was “antimicrobial”.
